From patent US9096528B2, “2-aminonicotinic acid ester derivative and bactericide containing same as active ingredient” (AGRO-KANESHO CO., LTD., priority 2012, dated 2015)

System: Botrytis cinerea
Assay: Test on Botrytis cinerea (gray mold) of a cucumber
Type: in vivo
Conditions: 25 ppm; cut cucumber cotyledons inoculated with spore suspension; 20° C. for 72 hours; from lesion diameter vs non-treatment region
Method: A cucumber plant (a plant variety: “Sagami Han-shiro”) of 12 days after seeding was prepared for the test. Parts of cotyledons of the cucumber plant were cut out with leaving about 2 cm of its rachis. Apart from this, a plastic case with a size of 32 cm×24 cm×4.5 cm (length×width×height), at the bottom of which a paper towel sufficiently moistened with water was laid, and on the paper towel a mesh with legs was placed, was prepared. On the mesh, the above-described cut-out parts of cotyledons were placed such that leaves were horizontal. To the central part of each of the cotyledons, 50 μl of a spore suspension (1×10^6 spores/ml) of Botrytis cinerea of a cucumber was added dropwise. Thereafter, each of cotyledons was covered with a paper disc with a diameter of 6 mm. Apart from this, an emulsion prepared according to the above Preparation Example 1 was diluted with an aqueous solution of 0.02% Tween 20 in demineralized water to prepare a diluent of a predetermined concentration. 50 μl of the diluent was dropped on each paper disc. The plastic case was lidded and was placed under the condition of 20° C. for 72 hours, and then the diameter of each lesion was measured and the controlling rate for Botrytis cinerea (gray mold) of a cucumber was calculated according to the following equation. […]

## CCOc1cccc(Oc2ccc(CNC(=O)c3cccnc3N)cc2)c1 [A]
  Controlling rate (%): 54%
